Here are results for 87 molecules from a melting point compilation (Tetko et al.).

Structures are written as SMILES.

For the molecule `CC(C)c1ccc(S(=O)(=O)N2CC(O)CC2C(=O)O)cc1` (configuration not stated), the melting point fell in the range of 153 to 155 °C.

`O=C(O)CNC(=O)c1ccsc1` had a melting point of 176 to 178 °C.

Molecule `Nc1nc(-c2ccc(Cl)s2)ns1` had a melting point of 151 to 153 °C.

As for `NS(=O)(=O)c1ccc(C(=O)O)cc1F`, the melting point lay within 274 to 276 °C.

The molecule `Fc1nc(C(F)(F)F)ccc1I` came in with a melting point of 48 to 50 °C.

Take `O=C(O)c1ccc(-n2cncn2)c([N+](=O)[O-])c1`: the melting point was 274 to 276 °C.

In the case of `CCN(CC)S(=O)(=O)c1ccc(Cl)c(S(=O)(=O)Cl)c1`, the melting point lay within 99 to 101 °C.

The molecule `C/C(=N\O)c1ccc(-c2cccc(Br)c2)s1` registered a melting point of 168 to 170 °C.

`CCOC(=O)c1nc(C)oc1N` showed a melting point of 123 to 125 °C.

Take `CC(=O)Nc1[nH]c(=O)ccc1[N+](=O)[O-]`: the melting point lay within 182 to 184 °C.

As to `CCCCc1ccc(NS(=O)(=O)c2ccc(C)c(C(=O)O)c2)cc1`, the melting point is 192 to 194 °C.

On to `O=C(O)C1CCCCN1S(=O)(=O)c1ccc(Br)s1` (configuration not stated), for which the melting point was in the range of 125 to 127 °C.

The molecule `O=C(O)c1cn(-c2ccccc2C(F)(F)F)nn1` registered a melting point of 129 to 131 °C.

As to `CC(C)(C)OC(=O)NCc1cc[nH]n1`, the melting point lay in the range of 104 to 106 °C.

As to `CC(C)(C)n1cc(C#N)cc1NC(=O)OCC(F)(F)F`, the melting point fell in the range of 147 to 149 °C.

In turn, `CS(=O)(=O)c1ccc(F)c(C(=O)O)c1` registered a melting point of 190 to 192 °C.

In the case of `O=C(O)CCCCCN1C(=O)CSC1=S`, the melting point was 85 to 87 °C.

The molecule `CC(C)(C(=O)O)C(O)c1cccc(O)c1` (configuration not stated) showed a melting point of 163 to 165 °C.

Molecule `CC(C)(C)Sc1ccc(C#N)cn1` showed a melting point of 69 to 71 °C.

With `O=Cc1c(F)cccc1N1CCCC1`, the melting point lay within 41 to 43 °C.

`Cc1cncc(N)c1` registered a melting point of 59 to 63 °C.

Turning to `O=C(O)COc1cccc(Br)c1`, the melting point fell in the range of 108 to 110 °C.

For `Clc1nc(C2CC2)nc2sc3c(c12)CCCC3`, the melting point was in the range of 112 to 114 °C.

`NC(=O)NCc1ccc(C(=O)O)cc1`: the melting point was 291 to 293 °C.

On to `NCCNc1ncnc2sccc12`, for which the melting point lay in the range of 117 to 119 °C.

Consider `CCCc1nn(-c2ccccc2F)c(Cl)c1C(=O)O`, for which the melting point is 169 to 171 °C.

As to `CCCC(=O)N1CCCC1C(=O)O` (configuration not stated), the melting point was 115 to 117 °C.

`CCCc1ccc(N)c(C(=O)O)c1` returned a melting point of 116 to 118 °C.

Regarding `c1ccc(CN(Cc2ccccc2)Cn2nnc3ccccc32)cc1`, the melting point fell in the range of 118 to 120 °C.

Molecule `O=C(Cn1ccnc1)c1cccc(F)c1` came in with a melting point of 113 to 115 °C.

`COc1ccc(Br)cc1NCc1cccnc1` gave a melting point of 66 to 68 °C.

As for `CC(C)c1noc2nc(-c3cccnc3)cc(C(=O)O)c12`, the melting point lay in the range of 279 to 281 °C.

In turn, `CCN(CC)S(=O)(=O)c1ccc(N2CCOCC2)c(C(=O)O)c1` had a melting point of 149 to 151 °C.

`CC(Oc1ccc(Br)cc1F)C(=O)O` (configuration not stated) showed a melting point of 113 to 115 °C.

`Cn1ccnc1Sc1ccc(F)cc1N` showed a melting point of 136 to 138 °C.

Regarding `Sc1nc(-c2cc3ccccc3o2)no1`, the melting point was 152 to 154 °C.

In the case of `COC(=O)c1cc2ccccc2n1C`, the melting point lay within 69 to 71 °C.

`CC(C)c1ccc(C(=O)O)c(O)c1` returned a melting point of 93 to 95 °C.

For the molecule `O=C(O)c1ccc(-n2nnc3ccccc32)cc1`, the melting point lay in the range of 308 to 310 °C.

Turning to `CCc1ccc(S(C)(=O)=O)cc1C(=O)O`, the melting point is 151 to 153 °C.

For the molecule `CCN(CC)S(=O)(=O)c1ccc(N)cc1`, the melting point was 99 to 101 °C.

Turning to `COC(=O)CCNc1nc2ccccc2o1`, the melting point lay within 108 to 110 °C.

The molecule `Cc1nc(S)nc(O)c1C` yielded a melting point of 276 to 278 °C.

`NNC(=O)c1ccc2ccccc2n1` displayed a melting point of 133 to 135 °C.

In turn, `CCCC1(C)NC(=O)NC1=O` (configuration not stated) yielded a melting point of 123 to 125 °C.

For `O=C(O)Cn1cccn1`, the melting point was 139 to 141 °C.

In turn, `O=c1[nH]c2cc(F)c(F)cc2[nH]1` yielded a melting point of 332 to 334 °C.

The molecule `Nc1ccccc1CN1CCNC1=O` came in with a melting point of 142 to 144 °C.

As to `c1ccc2oc(N3CCNCC3)nc2c1`, the melting point was in the range of 74 to 76 °C.

As for `CCOC(=O)c1cc(N2CCNC(=O)C2)ccc1N`, the melting point was 126 to 128 °C.

Regarding `CCS(=O)(=O)CCn1ccc(N)n1`, the melting point is 53 to 55 °C.

The molecule `Cc1cc(N)n(C2CCOC2)n1` (configuration not stated) returned a melting point of 91 to 93 °C.

In turn, `CCNC(=O)c1cccc(C#N)c1` showed a melting point of 99 to 101 °C.

With `NC1(CO)CCc2ccccc21` (configuration not stated), the melting point was 100 to 102 °C.

For `CCCN(CCC)C(=O)c1ccc(N)cc1`, the melting point fell in the range of 81 to 83 °C.

For the molecule `COc1ccc(NS(=O)(=O)Cc2ccc(N)cc2)cc1`, the melting point lay within 153 to 155 °C.

`O=C(O)Cc1ccc(S(=O)(=O)C(F)F)cc1` displayed a melting point of 139 to 141 °C.

`CCc1nc2ccccc2n1C1CCNCC1` came in with a melting point of 99 to 101 °C.

For the molecule `Cc1noc(C)c1COc1ccc(C=O)cc1`, the melting point is 107 to 109 °C.

Take `Cc1cc(Cl)c2cc(Cl)cc(C)c2n1`: the melting point lay in the range of 122 to 124 °C.

Turning to `Cc1oc(C(=O)O)cc1S(=O)(=O)N1CCCC1`, the melting point is 219 to 221 °C.

Consider `Nc1sc2c(c1C(=O)O)CCC2`, for which the melting point fell in the range of 147 to 149 °C.

`NC(=O)Cn1cc([N+](=O)[O-])cn1` came in with a melting point of 167 to 169 °C.

In the case of `O=C(O)Cc1cccc(OCc2ccncc2)c1`, the melting point lay within 138 to 140 °C.

`CCN(C(C)=O)c1nc(CCl)cs1` had a melting point of 82 to 84 °C.

Turning to `CC(C)Oc1cc(C(=O)O)ccn1`, the melting point fell in the range of 145 to 147 °C.

On to `Fc1cccc2cc(I)cnc12`, for which the melting point lay within 77 to 79 °C.

`Cc1cccc(C2(C(F)(F)F)CCCN2)c1C` (configuration not stated): the melting point fell in the range of 45 to 47 °C.

Molecule `C/C(=N\OCC(=O)O)c1ccc2c(c1)OCO2` had a melting point of 136 to 138 °C.

Consider `O=C(NCc1nnc2n1CCC2)OCC(F)(F)F`, for which the melting point lay within 131 to 133 °C.

In turn, `CCOc1cc(F)ccc1[N+](=O)[O-]` returned a melting point of 31 to 33 °C.

For `Sc1nnc(CN2CCCC2)n1-c1ccc(Cl)cc1`, the melting point was in the range of 260 to 262 °C.

For `CN1CCN(c2ccc(CO)cc2F)CC1`, the melting point lay in the range of 87 to 89 °C.

Molecule `CC(C)(C)OC(=O)NC1CC(O)C1` (configuration not stated) gave a melting point of 108 to 110 °C.

Molecule `COC(=O)C(N)c1cccnc1` (configuration not stated) yielded a melting point of 61 to 63 °C.

Regarding `CCOC(=O)c1c(-c2ccccc2)csc1NC(=O)CCCl`, the melting point lay within 64 to 66 °C.

Turning to `COc1ccccc1NCCC(N)=O`, the melting point fell in the range of 94 to 96 °C.

Regarding `O=Cc1cccc(NC(=O)C(F)(F)F)c1`, the melting point is 102 to 104 °C.

As to `O=C(O)c1cncs1`, the melting point was in the range of 169 to 171 °C.

Regarding `Cc1c(CC(=O)O)nnn1-c1ccccc1`, the melting point was in the range of 169 to 171 °C.

`COc1ccc(C(=O)O)cc1S(=O)(=O)NCc1ccncc1` gave a melting point of 225 to 227 °C.

As to `O=Cc1cn(-c2ccccc2)nc1-c1ccc(Cl)cc1`, the melting point was 125 to 127 °C.

Turning to `Cc1cc(N)n(-c2ccc(C(F)(F)F)cn2)n1`, the melting point is 119 to 121 °C.

On to `COc1ccc2c(c1)CCCC2CC(=O)O` (configuration not stated), for which the melting point was 84 to 86 °C.

As for `CC1C=C(C(=O)O)CC1` (configuration not stated), the melting point fell in the range of 33 to 35 °C.

Turning to `Cc1nnc(Cl)n1-c1ccccc1`, the melting point is 252 to 254 °C.

In the case of `O=C(O)c1ccc(NC(=O)C2CC2)cc1`, the melting point was in the range of 274 to 276 °C.
